Test results taken from PubChem BioAssay AID248 (DTP/NCI, 2004).
Values joined by “and” are separate entries in the source; they are usually repeats but may differ in a detail not shown here. Equal values may be shown once. Inconclusive results and toxic doses are left out. No stated cut-off is given here; in the data, active means T/C of 150% or more; inactive means T/C below 125%.

System: L1210 leukemia ip in BDF1 mice, survival T/C
Assay: NCI In Vivo Anticancer Drug Screen. Data for tumor model L1210 Leukemia (intraperitoneal) in B6D2F1 (BDF1) mice
Conditions: endpoint: mean survival time, higher = longer survival
Method in brief: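 In this screen, tumor-bearing mice given compound are compared to those given vehicle, and their survival values are reported as a treated-to-control quotient.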

[1] = dose: 100.0 mg/kg/injection, schedule: Q01DX009 (ip), vehicle: saline with Tween-80
[2] = dose: 200.0 mg/kg/injection, schedule: Q01DX009 (ip), vehicle: saline with Tween-80
[3] = dose: 100.0 mg/kg/injection, schedule: Q01DX001 (ip), vehicle: saline
[4] = dose: 200.0 mg/kg/injection, schedule: Q01DX001 (ip), vehicle: saline
[5] = dose: 400.0 mg/kg/injection, schedule: Q01DX001 (ip), vehicle: saline
[6] = dose: 50.0 mg/kg/injection, schedule: Q01DX009 (ip), vehicle: saline with Tween-80
[7] = dose: 100.0 mg/kg/injection, schedule: Q04DX003 (ip), vehicle: saline with Tween-80
[8] = dose: 200.0 mg/kg/injection, schedule: Q04DX003 (ip), vehicle: saline with Tween-80
[9] = dose: 100.0 mg/kg/injection, schedule: Q01DX009 (ip), vehicle: Klucel (hydroxypropylcellulose) (HPC)
[10] = dose: 200.0 mg/kg/injection, schedule: Q01DX009 (ip), vehicle: Klucel (hydroxypropylcellulose) (HPC)
[11] = dose: 400.0 mg/kg/injection, schedule: Q01DX009 (ip), vehicle: Klucel (hydroxypropylcellulose) (HPC)
[12] = dose: 100.0 mg/kg/injection, schedule: Q01DX001 (ip), vehicle: other
[13] = dose: 200.0 mg/kg/injection, schedule: Q01DX001 (ip), vehicle: other
[14] = dose: 400.0 mg/kg/injection, schedule: Q01DX001 (ip), vehicle: other
[15] = dose: 400.0 mg/kg/injection, schedule: Q04DX003 (ip), vehicle: saline with Tween-80
[16] = dose: 100.0 mg/kg/injection, schedule: Q01DX001 (ip), vehicle: saline with Tween-80
[17] = dose: 200.0 mg/kg/injection, schedule: Q01DX001 (ip), vehicle: saline with Tween-80
[18] = dose: 400.0 mg/kg/injection, schedule: Q01DX001 (ip), vehicle: saline with Tween-80

Measured: T/C

Cc1ccc2nc(-c3ccc(N)cc3)sc2c1
inactive: [1] 96 % of control | [2] 91 % of control

O=C(Oc1ccccc1Cl)c1ccccc1
inactive: [1] 113 % of control | [2] 116 % of control

Cc1cccc(C=O)c1
inactive: [3] 102 % of control | [4] 96 % of control | [5] 96 % of control

CCCCOc1cc(C(=O)O)ccc1[N+](=O)[O-]
inactive: [6] 97 % of control | dose: 50.0 mg/kg/injection, schedule: Q04DX003 (ip), vehicle: saline with Tween-80 96 % of control | [1] 98 % of control | [7] 91 % of control | [8] 102 % of control

O=N[O-].O=N[O-].[Co].[NH-]CCN(CC[NH-])CC[NH-]
inactive: dose: 50.0 mg/kg/injection, schedule: Q01DX001 (ip), vehicle: saline 108 % of control

CC(C)(C)CC(C)(C)c1ccc(OCCOS(=O)(=O)c2cccc([N+](=O)[O-])c2)cc1
inactive: [7] 94 % of control | [8] 90 % of control

CCCCCCC(=O)C(CCCC)(C(=O)OCC)C(=O)OCC
inactive: [9] 101 % of control | [10] 104 % of control | [11] 101 % of control

COc1ccc(NC(=O)CC(C)=O)cc1
inactive: [12] 92 % of control | [7] 94 % of control | [13] 97 % of control | [8] 100 % of control | [14] 103 % of control | [15] 99 % of control

CC(=O)OCC(I)CC(F)(F)C(F)(F)C(F)(F)F (configuration not stated)
inactive: [16] 98 % of control | [17] 103 % of control | [18] 116 % of control

Cc1cccc2cccnc12
inactive: [12] 104 % of control | [13] 106 % of control | [14] 98 % of control

CS(=O)(=O)Oc1c(Cl)cc(Cl)c2ccccc12
inactive: [3] 98 % of control | [4] 92 % of control | [5] 101 % of control

O=C(NCCCCNC(=O)Nc1ccc(C2=NCCN2)cc1)Nc1ccc(C2=NCCN2)cc1
inactive: dose: 8.0 mg/kg/injection, schedule: Q01DX Z (ip), vehicle: carboxymethylcellulose (CMC) 88 % of control | dose: 16.0 mg/kg/injection, schedule: Q01DX Z (ip), vehicle: carboxymethylcellulose (CMC) 92 % of control | dose: 31.0 mg/kg/injection, schedule: Q01DX Z (ip), vehicle: carboxymethylcellulose (CMC) 101 % of control | dose: 62.0 mg/kg/injection, schedule: Q01DX Z (ip), vehicle: carboxymethylcellulose (CMC) 123 % of control | dose: 125.0 mg/kg/injection, schedule: Q01DX Z (ip), vehicle: carboxymethylcellulose (CMC) 112 % of control

CN1CCN(C(=O)c2ccc(Cl)c(Cl)c2)CC1
inactive: dose: 12.5 mg/kg/injection, schedule: Q01DX009 (ip), vehicle: saline with Tween-80 117 % of control | dose: 12.5 mg/kg/injection, schedule: Q04DX003 (ip), vehicle: saline 102 % of control | dose: 25.0 mg/kg/injection, schedule: Q01DX009 (ip), vehicle: saline with Tween-80 114 % of control | dose: 25.0 mg/kg/injection, schedule: Q04DX003 (ip), vehicle: saline 102 % of control | [6] 102 % of control and 115 % of control | dose: 50.0 mg/kg/injection, schedule: Q04DX003 (ip), vehicle: saline 108 % of control | dose: 75.0 mg/kg/injection, schedule: Q01DX009 (ip), vehicle: saline with Tween-80 115 % of control | [1] 95 % of control

COc1cc2c(cc1OC)-c1nc(C)sc1CC2
inactive: [7] 98 % of control | [8] 95 % of control | [15] 98 % of control

COc1ccc(C2CC(=O)OC(=O)C2)cc1
inactive: dose: 25.6 mg/kg/injection, schedule: Q04DX002 (ip), vehicle: saline with Tween-80 101 % of control | dose: 64.0 mg/kg/injection, schedule: Q04DX002 (ip), vehicle: saline with Tween-80 101 % of control | dose: 160.0 mg/kg/injection, schedule: Q04DX002 (ip), vehicle: saline with Tween-80 101 % of control | [8] 97 % of control | dose: 400.0 mg/kg/injection, schedule: Q04DX002 (ip), vehicle: saline with Tween-80 95 % of control | [15] 92 % of control

C[n+]1cccc(C(=O)NN=C2CCCCC2)c1
inactive: [16] 93 % of control | [17] 102 % of control | [18] 94 % of control

CCOc1ccc(NC(=O)OCCCl)cc1
inactive: dose: 75.0 mg/kg/injection, schedule: Q04DX002 (ip), vehicle: Klucel (hydroxypropylcellulose) (HPC) 105 % of control | dose: 150.0 mg/kg/injection, schedule: Q04DX002 (ip), vehicle: Klucel (hydroxypropylcellulose) (HPC) 105 % of control | dose: 300.0 mg/kg/injection, schedule: Q04DX002 (ip), vehicle: Klucel (hydroxypropylcellulose) (HPC) 101 % of control

C#CCOCC(O)C[As](=O)(O)c1ccc(Cl)cc1 (configuration not stated)
inactive: dose: 6.25 mg/kg/injection, schedule: Q01DX001 (ip), vehicle: saline with Tween-80 101 % of control | dose: 12.5 mg/kg/injection, schedule: Q01DX001 (ip), vehicle: saline with Tween-80 106 % of control

O=Cc1ccc(OCCBr)cc1
inactive: [7] 98 % of control | [8] 97 % of control | [15] 103 % of control

ON=C1CCC(=NO)CC1
inactive: [16] 95 % of control | [17] 98 % of control | [18] 103 % of control

CCOC(=O)c1ccc(N2C(N)=NC(N)=NC2(C)C)cc1
inactive: dose: 100.0 mg/kg/injection, schedule: Q04DX003 (ip), vehicle: saline 101 % of control

CCc1ccc(NC(=O)Nc2ccccc2C)cc1
inactive: [9] 92 % of control | dose: 100.0 mg/kg/injection, schedule: Q04DX003 (ip), vehicle: Klucel (hydroxypropylcellulose) (HPC) 93 % of control | [10] 94 % of control | dose: 200.0 mg/kg/injection, schedule: Q04DX003 (ip), vehicle: Klucel (hydroxypropylcellulose) (HPC) 93 % of control | [11] 100 % of control | dose: 400.0 mg/kg/injection, schedule: Q04DX003 (ip), vehicle: Klucel (hydroxypropylcellulose) (HPC) 94 % of control

COc1ncnc2c1ncn2C1CC(CO)C(O)C1O (configuration not stated)
inactive: dose: 25.0 mg/kg/injection, schedule: Q01DX009 (ip), vehicle: saline 102 % of control | dose: 50.0 mg/kg/injection, schedule: Q01DX009 (ip), vehicle: saline 95 % of control | dose: 100.0 mg/kg/injection, schedule: Q01DX009 (ip), vehicle: saline 91 % of control

c1cnc(OCCN2CC2)nc1
inactive: dose: 25.0 mg/kg/injection, schedule: Q01DX001 (ip), vehicle: carboxymethylcellulose (CMC) 93 % of control | dose: 50.0 mg/kg/injection, schedule: Q01DX001 (ip), vehicle: carboxymethylcellulose (CMC) 95 % of control

CC(C)(C)OP(O)(=S)OC(C)(C)C
inactive: dose: 100.0 mg/kg/injection, schedule: Q04DX002 (ip), vehicle: saline 94 % of control | dose: 200.0 mg/kg/injection, schedule: Q04DX002 (ip), vehicle: saline 113 % of control | dose: 400.0 mg/kg/injection, schedule: Q04DX002 (ip), vehicle: saline 110 % of control

Cc1ncc(CO)c(/C=N/N=C(N)N)c1O
inactive: dose: 30.0 mg/kg/injection, schedule: Q01DX Z (oral), vehicle: methylcellulose (MC) 92 % of control | dose: 120.0 mg/kg/injection, schedule: Q01DX Z (oral), vehicle: methylcellulose (MC) 94 % of control | dose: 240.0 mg/kg/injection, schedule: Q01DX Z (oral), vehicle: methylcellulose (MC) 103 % of control
